Source: PubChem BioAssay (NCI)
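Where inhibition never reached the appropriate level, the endpoint shown equals the highest concentration tested. Otherwise, values were interpolated linearly from a five-concentration, 48-hour dose response in 96-well plates. At the GI50, growth is halved. The concentration for full growth arrest is given as TGI.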

Legend:
Assay in all cases: NCI-60 cell line screen, 48 h
RPMI-8226 leukemia = tested on: RPMI-8226 leukemia
786-0 renal = tested on: 786-0 renal
CAKI-1 renal = tested on: CAKI-1 renal
OVCAR-8 ovarian = tested on: OVCAR-8 ovarian
HCT-15 colon = tested on: HCT-15 colon
SR leukemia = tested on: SR leukemia
IGROV1 ovarian = tested on: IGROV1 ovarian
T-47D breast = tested on: T-47D breast
SF-268 CNS = tested on: SF-268 CNS
A549 NSCLC = tested on: A549 NSCLC
A498 renal = tested on: A498 renal
MDA-MB-435 = tested on: MDA-MB-435
EKVX NSCLC = tested on: EKVX NSCLC
K-562 leukemia = tested on: K-562 leukemia
UO-31 renal = tested on: UO-31 renal
MOLT-4 leukemia = tested on: MOLT-4 leukemia
SK-MEL-2 melanoma = tested on: SK-MEL-2 melanoma
UACC-62 melanoma = tested on: UACC-62 melanoma
HT29 colon = tested on: HT29 colon
SNB-75 CNS = tested on: SNB-75 CNS
OVCAR-3 ovarian = tested on: OVCAR-3 ovarian
UACC-257 melanoma = tested on: UACC-257 melanoma
PC-3 prostate = tested on: PC-3 prostate
BT-549 breast = tested on: BT-549 breast
TK-10 renal = tested on: TK-10 renal
SK-OV-3 ovarian = tested on: SK-OV-3 ovarian
NCI-H522 lung = tested on: NCI-H522 lung
RXF 393 renal = tested on: RXF 393 renal
MALME-3M melanoma = tested on: MALME-3M melanoma
HCC-2998 colon = tested on: HCC-2998 colon
HOP-92 NSCLC = tested on: HOP-92 NSCLC
SF-295 CNS = tested on: SF-295 CNS
HOP-62 NSCLC = tested on: HOP-62 NSCLC
SNB-19 CNS = tested on: SNB-19 CNS
NCI/ADR-RES ovarian = tested on: NCI/ADR-RES ovarian
SW-620 colon = tested on: SW-620 colon
NCI-H460 lung = tested on: NCI-H460 lung
M14 melanoma = tested on: M14 melanoma
NCI-H23 lung = tested on: NCI-H23 lung
OVCAR-4 ovarian = tested on: OVCAR-4 ovarian
U251 CNS = tested on: U251 CNS
MDA-MB-231 breast = tested on: MDA-MB-231 breast
DU-145 prostate = tested on: DU-145 prostate
HS 578T breast = tested on: HS 578T breast
OVCAR-5 ovarian = tested on: OVCAR-5 ovarian
LOX IMVI melanoma = tested on: LOX IMVI melanoma
SK-MEL-28 melanoma = tested on: SK-MEL-28 melanoma
ACHN renal = tested on: ACHN renal
KM12 colon = tested on: KM12 colon
SN12C renal = tested on: SN12C renal
MCF7 breast = tested on: MCF7 breast
HCT-116 colon = tested on: HCT-116 colon
SK-MEL-5 melanoma = tested on: SK-MEL-5 melanoma
CCRF-CEM leukemia = tested on: CCRF-CEM leukemia
NCI-H226 lung = tested on: NCI-H226 lung
COLO 205 colon = tested on: COLO 205 colon
SF-539 CNS = tested on: SF-539 CNS

CCC(CN(C)C)C(=O)c1ccco1 (centres undefined)
TGI (RPMI-8226 leukemia): > 100 µM
TGI (786-0 renal): > 100 µM
TGI (CAKI-1 renal): > 100 µM
TGI (OVCAR-8 ovarian): > 100 µM
TGI (HCT-15 colon): > 100 µM
TGI (SR leukemia): > 100 µM
TGI (IGROV1 ovarian): > 100 µM
TGI (T-47D breast): > 100 µM
TGI (SF-268 CNS): > 100 µM
TGI (A549 NSCLC): > 100 µM
TGI (A498 renal): > 100 µM
TGI (MDA-MB-435): > 100 µM
TGI (EKVX NSCLC): > 100 µM
TGI (K-562 leukemia): > 100 µM
TGI (UO-31 renal): > 100 µM
TGI (MOLT-4 leukemia): 96.8 µM
TGI (SK-MEL-2 melanoma): > 100 µM
TGI (UACC-62 melanoma): > 100 µM
TGI (HT29 colon): > 100 µM
TGI (SNB-75 CNS): > 100 µM
TGI (OVCAR-3 ovarian): > 100 µM
TGI (UACC-257 melanoma): > 100 µM
TGI (PC-3 prostate): > 100 µM
TGI (BT-549 breast): > 100 µM
TGI (TK-10 renal): > 100 µM
TGI (SK-OV-3 ovarian): > 100 µM
TGI (NCI-H522 lung): 35.6 µM
TGI (RXF 393 renal): > 100 µM
TGI (MALME-3M melanoma): > 100 µM
TGI (HCC-2998 colon): > 100 µM
TGI (HOP-92 NSCLC): > 100 µM
TGI (SF-295 CNS): > 100 µM
TGI (HOP-62 NSCLC): > 100 µM
TGI (SNB-19 CNS): > 100 µM
TGI (NCI/ADR-RES ovarian): > 100 µM
TGI (SW-620 colon): > 100 µM
TGI (NCI-H460 lung): > 100 µM
TGI (M14 melanoma): > 100 µM
TGI (NCI-H23 lung): > 100 µM
TGI (OVCAR-4 ovarian): > 100 µM
TGI (U251 CNS): > 100 µM
TGI (MDA-MB-231 breast): > 100 µM
TGI (DU-145 prostate): > 100 µM
TGI (HS 578T breast): > 100 µM
TGI (OVCAR-5 ovarian): > 100 µM
TGI (LOX IMVI melanoma): > 100 µM
TGI (SK-MEL-28 melanoma): > 100 µM
TGI (ACHN renal): > 100 µM
TGI (KM12 colon): > 100 µM
TGI (SN12C renal): > 100 µM
TGI (MCF7 breast): > 100 µM
TGI (HCT-116 colon): > 100 µM

Oc1ccc(-c2cn3ccsc3n2)cc1O
GI50 (RPMI-8226 leukemia): 12.1 µM
TGI (RPMI-8226 leukemia): 65.4 µM
GI50 (786-0 renal): 36.6 µM
TGI (786-0 renal): > 100 µM
GI50 (SK-MEL-5 melanoma): 10.5 µM
TGI (SK-MEL-5 melanoma): 26.7 µM
GI50 (CAKI-1 renal): 26.3 µM
TGI (CAKI-1 renal): > 100 µM
GI50 (OVCAR-8 ovarian): 35.8 µM
TGI (OVCAR-8 ovarian): > 100 µM
GI50 (HCT-15 colon): 37.8 µM
TGI (HCT-15 colon): > 100 µM
GI50 (SR leukemia): 10.6 µM
TGI (SR leukemia): 41.4 µM
GI50 (IGROV1 ovarian): 21.3 µM
TGI (IGROV1 ovarian): > 100 µM
GI50 (T-47D breast): 32.4 µM
TGI (T-47D breast): > 100 µM
GI50 (SF-268 CNS): 27.8 µM
TGI (SF-268 CNS): > 100 µM
GI50 (A549 NSCLC): 72.8 µM
TGI (A549 NSCLC): > 100 µM
GI50 (A498 renal): 25.9 µM
TGI (A498 renal): 83.6 µM
GI50 (MDA-MB-435): 22.1 µM
TGI (MDA-MB-435): 47.8 µM
GI50 (EKVX NSCLC): 16.7 µM
TGI (EKVX NSCLC): 38.9 µM
GI50 (UO-31 renal): 16 µM
TGI (UO-31 renal): > 100 µM
GI50 (MOLT-4 leukemia): 11 µM
TGI (MOLT-4 leukemia): 55.4 µM
GI50 (SK-MEL-2 melanoma): 35.1 µM
TGI (SK-MEL-2 melanoma): > 100 µM
GI50 (UACC-62 melanoma): 19.6 µM
TGI (UACC-62 melanoma): 43.9 µM
GI50 (HT29 colon): 29.5 µM
TGI (HT29 colon): > 100 µM
GI50 (SNB-75 CNS): 55.1 µM
TGI (SNB-75 CNS): > 100 µM
GI50 (OVCAR-3 ovarian): 15.6 µM
TGI (OVCAR-3 ovarian): 46.4 µM
GI50 (CCRF-CEM leukemia): 4.41 µM
TGI (CCRF-CEM leukemia): 29.6 µM
GI50 (UACC-257 melanoma): > 100 µM
TGI (UACC-257 melanoma): > 100 µM
GI50 (NCI-H226 lung): 20.9 µM
TGI (NCI-H226 lung): 60.2 µM
GI50 (PC-3 prostate): 21.7 µM
TGI (PC-3 prostate): > 100 µM
GI50 (BT-549 breast): 10.2 µM
TGI (BT-549 breast): 30.7 µM
GI50 (TK-10 renal): 63.1 µM
TGI (TK-10 renal): > 100 µM
GI50 (COLO 205 colon): 29.9 µM
TGI (COLO 205 colon): > 100 µM
GI50 (SK-OV-3 ovarian): > 100 µM
TGI (SK-OV-3 ovarian): > 100 µM
GI50 (NCI-H522 lung): 11.5 µM
TGI (NCI-H522 lung): 33.2 µM
GI50 (RXF 393 renal): 78 µM
TGI (RXF 393 renal): > 100 µM
GI50 (MALME-3M melanoma): 30.8 µM
TGI (MALME-3M melanoma): 84.4 µM
GI50 (HCC-2998 colon): 78 µM
TGI (HCC-2998 colon): > 100 µM
GI50 (HOP-92 NSCLC): 23 µM
TGI (HOP-92 NSCLC): 78.5 µM
GI50 (SF-295 CNS): 69.6 µM
TGI (SF-295 CNS): > 100 µM
GI50 (HOP-62 NSCLC): 43.2 µM
TGI (HOP-62 NSCLC): > 100 µM
GI50 (SNB-19 CNS): 49.9 µM
TGI (SNB-19 CNS): > 100 µM
GI50 (NCI/ADR-RES ovarian): > 100 µM
TGI (NCI/ADR-RES ovarian): > 100 µM
GI50 (SW-620 colon): 11.5 µM
TGI (SW-620 colon): 70.5 µM
GI50 (NCI-H460 lung): 45.8 µM
TGI (NCI-H460 lung): > 100 µM
GI50 (M14 melanoma): 26.1 µM
TGI (M14 melanoma): 75.3 µM
GI50 (NCI-H23 lung): 46.3 µM
TGI (NCI-H23 lung): > 100 µM
GI50 (OVCAR-4 ovarian): 32.7 µM
TGI (OVCAR-4 ovarian): > 100 µM
GI50 (U251 CNS): 21.5 µM
TGI (U251 CNS): 46.7 µM
GI50 (MDA-MB-231 breast): 17.6 µM
TGI (MDA-MB-231 breast): 44.2 µM
GI50 (DU-145 prostate): 28.7 µM
TGI (DU-145 prostate): > 100 µM
GI50 (HS 578T breast): 0.203 µM
TGI (HS 578T breast): 22.4 µM
GI50 (OVCAR-5 ovarian): 38.9 µM
TGI (OVCAR-5 ovarian): > 100 µM
GI50 (LOX IMVI melanoma): 18.1 µM
TGI (LOX IMVI melanoma): 41.7 µM
GI50 (SF-539 CNS): 19.7 µM
TGI (SF-539 CNS): 79.6 µM
GI50 (SK-MEL-28 melanoma): 32.9 µM
TGI (SK-MEL-28 melanoma): > 100 µM
GI50 (ACHN renal): 22 µM
TGI (ACHN renal): 56.3 µM
GI50 (KM12 colon): 27.7 µM
TGI (KM12 colon): > 100 µM
GI50 (SN12C renal): 18.5 µM
TGI (SN12C renal): 37.8 µM
GI50 (MCF7 breast): 18.3 µM
TGI (MCF7 breast): > 100 µM
GI50 (HCT-116 colon): 18.1 µM
TGI (HCT-116 colon): 37.8 µM
